{
  "source": "ChEMBL document CHEMBL3832045",
  "about": "“DailyMed|setid=14ed9edd-bfd3-4fa4-9293-66666f779ba3 | TRIAMCINOLONE ACETONIDE - triamcinolone acetonide spray, metered|Physicians Total Care, Inc”",
  "type_in_all_cases": "ADME, organism-based",
  "key": {"[1]": {"assay": "(§1) Pharmacokinetic parameters for triamcinolone acetonide evaluated after intranasal administration of triamcinolone acetonide nasal spray.", "parameters": "dose 220 mcg, route intranasal, dose 110 to 440", "settings": "human, in vivo, inhaled or intranasal, dosed compound id 47, dosed compound name TRIAMCINOLONE ACETONIDE, regimen Single dose, tissue Plasma"}, "Homo sapiens": {"system": "Homo sapiens", "assay": "as §1", "parameters": "dose 220 mcg, route intranasal, dose 110 to 440", "settings": "in vivo, inhaled_or_intranasal, dose 220 mcg, dosed compound id 47, dosed compound name TRIAMCINOLONE ACETONIDE, regimen Single dose, route intranasal, tissue Plasma"}, "[2]": {"assay": "Evaluation of pharmacokinetic parameters for triamcinolone acetonide following intravenous dosing of triamcinolone acetonide phosphate ester in adults.", "settings": "human, in vivo, dosed compound id 470, dosed compound name TRIAMCINOLONE ACETONIDE PHOSPHATE ESTER, tissue Plasma"}},
  "data": [
    {"smiles": "CC1(C)O[C@@H]2C[C@H]3[C@@H]4CCC5=CC(=O)C=C[C@]5(C)[C@@]4(F)[C@@H](O)C[C@]3(C)[C@]2(C(=O)CO)O1", "note": "[TRIAMCINOLONE ACETONIDE]", "values": [
      {"measurement": "Tmax", "setting": "[1]; dose 220 mcg, route intranasal", "result": 1.5, "unit": "h"},
      {"measurement": "half-life", "setting": "[1]; dose 220 mcg, route intranasal", "result": 3.1, "unit": "h"},
      {"measurement": "Cmax", "setting": "[1]", "result": 0.5, "unit": "ng/mL"},
      {"measurement": "AUC", "setting": "[1]; read-out: AUC(0 to inf)", "result": "1.4 to 4.7", "unit": "ng·h/mL"},
      {"measurement": "t1/2", "setting": "Homo sapiens", "result": 3.1, "unit": "h"},
      {"measurement": "Vd", "setting": "[2]", "result": 99.5, "unit": "L"},
      {"measurement": "clearance", "setting": "[2]", "result": 753, "unit": "mL/min"},
      {"measurement": "half-life", "setting": "[2]", "result": 1.47, "unit": "h"}
    ]}
  ]
}
